Earlier results on one compound are cited in patent publication US20260218136A1, “R[…], COMPOSITIONS, AND METHODS OF USE” (priority 2022, published 2026).

SMILES strings stand for the structures.

The conditions of the data set: target and test not given; stated in the description of the rapalog bridging factor.

On to `CO[C@H]1[C@@H](O)[C@H](C)C[C@H](C)/C=C/C=C/C=C(\C)[C@@H](c2c[nH]c3c(C)cccc23)C[C@@H]2CC[C@@H](C)[C@@](O)(O2)C(=O)C(=O)N2CCCC[C@H]2C(=O)O[C@H]([C@H](C)C[C@@H]2CC[C@@H](O)[C@H](OC)C2)C[C@H](O)[C@H](C)/C=C(\C)[C@H]1O` [AP21967, C-16-(S)-7-methylindolerapamycin], for which the 50% inhibitory concentration (IC50) (usually the concentration needed to halve the response being measured) is 10 nM.
